Data on 33 compounds can be found in patent US11292782B2, “Diarylhydantoin compounds and methods of use thereof” (Nuvation Bio Inc., priority 2018, dated 2022).

Holding throughout (assay type): cell-based
In assay [1] the target is Human AR (Homo sapiens (Human), UniProt P10275). The assay can be described thus: AR antagonist assay (GRE-LUC luciferase, transfected HEK-293 cells, with 0.1 nM R1881). The conditions noted are these: for IC50: with 0.1 nM R1881; for inhibition at 1 µM: HEK293. As to the method: Human AR cDNA cloned into pCMV vector, GRE-LUC, and CMV-renilla-LUC were used to transfect cells. HEK-293 cells (ATCC) were plated at 120,000 cells per well of a 24 well plate in DME+5% csFBS (Fisher Scientific, Waltham, Mass.). The cells were transfected using Lipofectamine (Life Technologies, Carlsbad, Calif.) with 0.25 μg GRE-LUC, 0.010 μg CMV-LUC (renilla luciferase) and 25 ng of the AR. […] Luciferase assay was performed 48 hrs after transfection. Firefly luciferase assay values were normalized to renilla luciferase values and were graphed using graphpad prism software (La Jolla, Calif.). […] The IC50 or EC50 values were determined using non-linear regression and […] logistics fitting.

Assay [2] has as its target GR (Homo sapiens (Human), UniProt P04150). The assay can be described thus: GR antagonist assay (GRE-LUC luciferase, transfected COS-7 cells, with 0.1 nM dexamethasone). The note with it: for IC50 / GR antagonist assay, % of vehicle: in the presence of 0.1 nM dexamethasone; for inhibition at 10 µM: COS-7, read-out: GR Antagonism % inhibition at 10 μM; for GR antagonist assay, % of vehicle: 10 μM. As to the method:
COS-7 cells (ATCC, Manassas, Va.) were plated in 24 well plates in DME+5% csFBS without phenol red at 70,000 cells/well. Once the cells attached to the plates (typically after overnight incubation after plating), they were transfected in OPTIMEM medium (Life Technologies) using lipofectamine reagent (Life Technologies) with 0.25 μg GRE-LUC, 25 ng pCR3.1 GR, and 10 ng CMV-renilla LUC per well. Twenty-four hours after transfection, the cells were fed with DME+5% csFBS without phenol red (Fisher Scientific, Waltham, Mass.) and treated with the test compounds (1 pM to 10 μM dose range) in the presence of 0.1 nM dexamethasone (Sigma, St. Louis, Mo.). Sixteen to twenty-four hours after treatment, a luciferase assay was performed using the Dual Luciferase assay kit (Promega, Madison, Wis.). Firefly luciferase values were normalized to Renilla luciferase numbers.

Assay [3] deals with LNCaP-abl cells. The assay can be described thus: Cell proliferation assay, LNCaP-abl (CellTiter-Glo). The note with it: 72 h, 3 days; for activity at 3 µM: read-out: cell proliferation, % of vehicle at 3 μM; for activity at 10 µM: read-out: cell proliferation, % of vehicle at 10 μM. As to the method: LNCaP-abl (3,000 cells/well, received from Dr. Myles Brown, Dana Farber Cancer Institute), 22RV1 (1,000 cells/well), LNCaP (5,000 cells/well), or COS (3,000 cells/well) cells were plated in 96 well plates in 50 μl RPMI+10% FBS (Fisher Scientific, Waltham, Mass.). LNCaP, COS, and 22RV1 cells were obtained from ATCC. Cells were treated in RPMI+10% FBS with test articles, ranging from 1 nM to 10 μM. Three days later, viable cells (LNCaP-abl, 22RV1, and COS) were measured by CellTiter-Glo assay (Promega, Madison, Wis.). For LNCaP cells, medium containing test article was changed after 3 days of treatment, and after an additional 3 days of culture, viable cells were measured by CellTiter-Glo assay.
The LNCaP cell line is androgen responsive with AR and PSA expression. It contains a T877A mutation in the AR. The 22RV1 cell line is positive for AR and PSA with additional AR splice variants and is insensitive to androgen for cell proliferation. The LNCaP-abl cell line expresses both AR and GR but is insensitive to androgen for cell proliferation. COS-7 is used as an AR negative cell line in this experiment.
(In general: ATP-based viability assays read luminescence as a measure of living cells.)

Read-outs that look alike come from different tables or passages of the source.

Human AR, sequence (P10275 whole entry): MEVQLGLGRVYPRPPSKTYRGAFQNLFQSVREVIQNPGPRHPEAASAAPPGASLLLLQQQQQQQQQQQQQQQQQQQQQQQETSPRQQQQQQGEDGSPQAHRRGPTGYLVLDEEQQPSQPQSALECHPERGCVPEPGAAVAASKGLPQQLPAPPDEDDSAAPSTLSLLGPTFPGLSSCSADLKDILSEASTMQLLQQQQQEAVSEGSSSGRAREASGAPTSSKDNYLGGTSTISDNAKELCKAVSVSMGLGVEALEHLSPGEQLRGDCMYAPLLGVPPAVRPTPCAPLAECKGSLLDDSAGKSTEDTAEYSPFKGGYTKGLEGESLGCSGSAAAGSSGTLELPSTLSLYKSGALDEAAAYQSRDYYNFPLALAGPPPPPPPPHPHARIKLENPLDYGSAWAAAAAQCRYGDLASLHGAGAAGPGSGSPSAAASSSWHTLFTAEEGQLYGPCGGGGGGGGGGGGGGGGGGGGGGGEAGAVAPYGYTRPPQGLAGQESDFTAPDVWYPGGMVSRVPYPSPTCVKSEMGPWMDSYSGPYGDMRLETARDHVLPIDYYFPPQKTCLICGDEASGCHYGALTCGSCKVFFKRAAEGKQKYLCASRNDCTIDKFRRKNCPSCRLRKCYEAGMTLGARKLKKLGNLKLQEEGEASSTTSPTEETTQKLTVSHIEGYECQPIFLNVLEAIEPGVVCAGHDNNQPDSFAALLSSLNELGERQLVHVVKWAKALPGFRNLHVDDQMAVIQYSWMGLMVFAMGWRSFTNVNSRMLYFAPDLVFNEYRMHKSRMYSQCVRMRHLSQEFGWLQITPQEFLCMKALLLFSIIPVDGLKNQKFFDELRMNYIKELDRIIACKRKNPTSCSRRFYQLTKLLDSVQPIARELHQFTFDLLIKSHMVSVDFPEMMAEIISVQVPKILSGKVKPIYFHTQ
GR, sequence (P04150 whole entry): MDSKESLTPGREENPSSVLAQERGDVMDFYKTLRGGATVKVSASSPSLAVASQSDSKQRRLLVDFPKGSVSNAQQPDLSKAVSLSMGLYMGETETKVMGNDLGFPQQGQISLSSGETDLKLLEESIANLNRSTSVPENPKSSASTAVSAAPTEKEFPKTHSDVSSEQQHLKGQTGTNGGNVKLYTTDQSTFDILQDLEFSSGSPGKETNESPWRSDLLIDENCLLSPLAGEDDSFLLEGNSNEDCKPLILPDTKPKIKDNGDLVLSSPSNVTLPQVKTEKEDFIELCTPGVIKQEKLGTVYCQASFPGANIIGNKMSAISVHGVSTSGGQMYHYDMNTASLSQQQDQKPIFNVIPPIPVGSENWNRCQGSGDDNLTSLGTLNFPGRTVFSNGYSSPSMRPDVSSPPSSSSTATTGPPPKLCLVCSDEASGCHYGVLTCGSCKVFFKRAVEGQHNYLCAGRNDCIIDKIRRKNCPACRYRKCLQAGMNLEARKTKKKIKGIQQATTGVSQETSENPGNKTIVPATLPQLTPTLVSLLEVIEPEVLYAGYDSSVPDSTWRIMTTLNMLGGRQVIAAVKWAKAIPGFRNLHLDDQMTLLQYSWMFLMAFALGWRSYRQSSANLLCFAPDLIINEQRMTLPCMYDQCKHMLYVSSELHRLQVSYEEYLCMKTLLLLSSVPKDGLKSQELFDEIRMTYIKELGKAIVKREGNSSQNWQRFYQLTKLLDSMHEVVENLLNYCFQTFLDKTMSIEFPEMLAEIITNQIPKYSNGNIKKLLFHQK

Turning to `CC1(C)C(=O)N(c2ccc(C#N)c(C(F)(F)F)c2)C(=O)N1c1ccc(CNC(=O)c2cncs2)cc1` [Compound 27], the concentration for half-maximal inhibition (IC50) was 496 nM in assay [1] and more than 10000 nM in assay [2].
For `CC1(C)C(=O)N(c2ccc(C#N)c(C(F)(F)F)c2)C(=S)N1c1ccc(CNC(=O)c2ccc3[nH]ncc3c2)c(F)c1` [Compound 79], the inhibition at 10 µM in assay [2] came to 75%.
`Cc1ncsc1C(=O)NCc1ccc(N2C(=S)N(c3ccc(C#N)c(C(F)(F)F)c3)C(=O)C2(C)C)cc1Cl` [Compound 32]: in assay [3], the activity at 3 µM is 93% and the activity at 10 µM stood at 62%. The same compound came in with a half-maximal inhibitory concentration (IC50) in assay [1] of 120 nM. In addition, the IC50 in assay [2] is more than 10000 nM.
Consider `CC1(C)C(=O)N(c2ccc(C#N)c(C(F)(F)F)c2)C(=S)N1c1ccc(CNC(=O)c2cnco2)c(F)c1` [Compound 60], for which the activity at 3 µM in assay [3] was determined as 75%. Moreover, the activity at 10 µM in assay [3] came to 96%. Also, the IC50 in assay [1] was 115 nM; in assay [2], more than 10000 nM.
For `CC1(C)C(=O)N(c2ccc(C#N)c(C(F)(F)F)c2)C(=O)N1c1ccc(CNC(=O)c2ncccn2)cc1` [Compound 33], inhibition in assay [1] was half-maximal at 304 nM (IC50). For the same compound, the inhibition at 10 µM in assay [2] is 3%.
Take `Cn1cncc1C(=O)NCc1ccc(N2C(=S)N(c3ccc(C#N)c(C(F)(F)F)c3)C(=O)C2(C)C)cc1F` [Compound 44]: the activity at 3 µM in assay [3] came to 87%. In assay [3], the activity at 10 µM was determined as 71%. Further, the results for the half-maximal inhibitory concentration (IC50) in assay [1] and in assay [2] were 120 nM and more than 10000 nM, respectively.
Consider `Cc1nnc(C(=O)NCc2ccc(N3C(=S)N(c4ccc(C#N)c(C(F)(F)F)c4)C(=O)C3(C)C)cc2F)o1` [Compound 62], for which the inhibition at 10 µM in assay [2] is 0%.
Regarding `CC1(C)C(=O)N(c2cnc(C#N)c(C(F)(F)F)c2)C(=S)N1c1ccc(CNC(=O)c2ccccn2)c(F)c1` [Compound 50], the inhibition at 10 µM in assay [2] (10 μM single concentration) was 69%.
Regarding `Cc1ncsc1C(=O)NCc1ccc(N2C(=S)N(c3cnc(C#N)c(C(F)(F)F)c3)C(=O)C2(C)C)cc1F` [Compound 51], the inhibition at 1 µM in assay [1] came to 93%. Moreover, the inhibition at 10 µM in assay [2] (10 μM single concentration) was found to be 35%.
Take `Cc1ccccc1C(=O)NCc1ccc(N2C(=S)N(c3ccc(C#N)c(C(F)(F)F)c3)C(=O)C2(C)C)cc1F` [Compound 43]: the inhibition at 1 µM in assay [1] was found to be 94%. Also, the inhibition at 10 µM in assay [2] came out at 0%.
Take `Cc1ncc(C(=O)NCc2ccc(N3C(=S)N(c4ccc(C#N)c(C(F)(F)F)c4)C(=O)C3(C)C)cc2F)s1` [Compound 45]: in assay [3], the activity at 3 µM stood at 100% and the activity at 10 µM stood at 66%. Also, in assay [1], testing at 1 µM gave an inhibition of 95% and the IC50 turned out to be 99 nM. In addition, the IC50 in assay [2] is more than 10000 nM.
As to `CC1(C(=O)NCc2ccc(N3C(=S)N(c4ccc(C#N)c(C(F)(F)F)c4)C(=O)C3(C)C)cc2F)CC1` [Compound 52], the inhibition at 10 µM in assay [2] was 56%.
In the case of `Cc1ccccc1C(=O)NCc1ccc(N2C(=S)N(c3ccc(C#N)c(F)c3)C(=O)C2(C)C)cc1F` [Compound 71], in assay [3], the activity at 3 µM was determined as 86% and the activity at 10 µM stood at 81%. Further, the IC50 in assay [1] worked out at 589 nM. For the same compound, in assay [2], the half-maximal inhibitory concentration (IC50) was more than 10000 nM.
For `CC1(C)C(=O)N(c2ccc(C#N)c(C(F)(F)F)c2)C(=S)N1c1ccc(CNC(=O)c2ccc3cn[nH]c3c2)c(F)c1` [Compound 80], in assay [2], the inhibition at 10 µM was determined as 38%.
In the case of `CC1(C)C(=O)N(c2ccc(C#N)c(C(F)(F)F)c2)C(=S)N1c1ccc(CNC(=O)c2ncc[nH]2)c(F)c1` [Compound 3], the 50% inhibitory concentration (IC50) is 180 nM in assay [1] and more than 10000 nM in assay [2].
With `CC1(C)C(=O)N(c2ccc(C#N)c(C(F)(F)F)c2)C(=O)N1c1ccc(CNC(=O)c2ccccn2)c(F)c1` [Compound 23], in assay [3], the activity at 3 µM amounted to 84% and the activity at 10 µM amounted to 43%. In assay [1], this compound returned a half-maximal inhibitory concentration (IC50) of 180 nM. In addition, in assay [2], the IC50 was more than 10000 nM.
Turning to `CC#C[C@]1(O)CC[C@H]2[C@@H]3CCC4=CC(=O)CCC4=C3[C@@H](c3ccc(N(C)C)cc3)C[C@@]21C` [RU486, reference compound], in assay [2], the “GR antagonist assay, % of vehicle” value was 13%. Further, the inhibition at 1 µM in assay [2] (COS-7, read-out: GR antagonism inhibition at 1 μM) was 72.8%.
In the case of `CC1(C)C(=O)N(c2cnc(C#N)c(C(F)(F)F)c2)C(=S)N1c1ccc(CNC(=O)c2ncccn2)c(Cl)c1` [Compound 30], the values for the IC50 in assay [1] and in assay [2] were 73 nM and more than 10000 nM, respectively.
Take `CC1(C)C(=O)N(c2ccc(C#N)c(C(F)(F)F)c2)C(=S)N1c1ccc(CN2Cc3ncccc3C2=O)c(F)c1` [Compound 66, 4-(3-(3-fluoro-4-((5-oxo-5H-pyrrolo[3,4-b]pyridin-6(7H)-yl)methyl)phenyl)-4,4-dimethyl-5-oxo-2-thioxoimidazolidin-1-yl)-2-(trifluoromethyl)benzonitrile]: the inhibition at 1 µM in assay [1] was 90%. Further, the “GR antagonist assay, % of vehicle” value in assay [2] turned out to be 31%.
On to `CN1CC(C(=O)NCc2ccc(N3C(=S)N(c4ccc(C#N)c(C(F)(F)F)c4)C(=O)C3(C)C)cc2F)C1` [Compound 63], for which the inhibition at 10 µM in assay [2] is 0%.
Still for that read-out and setting: then `CC1(C)C(=O)N(c2ccc(C#N)c(C(F)(F)F)c2)C(=S)N1c1ccc(CNS(=O)(=O)c2ccccn2)c(F)c1` [Compound 75], with 40%.
With `CC1(C)C(=O)N(c2ccc(C#N)c(C(F)(F)F)c2)C(=S)N1c1ccc(CNC(=O)c2ccccc2F)c(F)c1` [Compound 47], in assay [2], the inhibition at 10 µM was determined as 46%.
Consider `CC1(C)C(=O)N(c2ccc(C#N)c(C(F)(F)F)c2)C(=O)N1c1ccc(CNC(=O)C2CC2)c(F)c1` [Compound 24], for which the IC50 is 1090 nM in assay [1] and more than 10000 nM in assay [2].
In the case of `CC1(C)C(=O)N(c2ccc(C#N)c(F)c2)C(=S)N1c1ccc(CN2Cc3ncccc3C2=O)c(F)c1` [Compound 78, 2-fluoro-4-(3-(3-fluoro-4-((5-oxo-5,7-dihydro-6H-pyrrolo[3,4-b]pyridin-6-yl)methyl)phenyl)-4,4-dimethyl-5-oxo-2-thioxoimidazolidin-1-yl)benzonitrile], the inhibition at 10 µM in assay [2] (10 μM single concentration) was determined as 0%.
Regarding `CC1(C)C(=O)N(c2ccc(C#N)c(C(F)(F)F)c2)C(=S)N1c1ccc(CNC(=O)c2ncccn2)c(Cl)c1` [Compound 31], the IC50 in assay [1] was 62 nM; in assay [2] it was more than 10000 nM.
Regarding `CC1(C)C(=O)N(c2ccc(C#N)c(C(F)(F)F)c2)C(=S)N1c1ccc(CNC(=O)c2ccncn2)c(F)c1` [Compound 14], the inhibition at 10 µM in assay [2] was 22%.
Take `Cc1cccnc1C(=O)NCc1ccc(N2C(=S)N(c3ccc(C#N)c(C(F)(F)F)c3)C(=O)C2(C)C)cc1F` [Compound 40]: the inhibition at 10 µM in assay [2] was determined as 48%.
As to `Cn1nccc1C(=O)NCc1ccc(N2C(=S)N(c3ccc(C#N)c(F)c3)C(=O)C2(C)C)cc1F` [Compound 74], the inhibition at 10 µM in assay [2] (10 μM single concentration) is 17%.
As to `CC(C)C(=O)NCc1ccc(N2C(=O)N(c3ccc(C#N)c(C(F)(F)F)c3)C(=O)C2(C)C)cc1F` [Compound 20], the IC50 was 1870 nM in assay [1] and more than 10000 nM in assay [2].
On to `CC1(C)C(=O)N(c2ccc(C#N)c(C(F)(F)F)c2)C(=S)N1c1cnc(CNC(=O)c2ccccn2)c(F)c1` [Compound 53], for which, in assay [2], the inhibition at 10 µM amounted to 66%.
Same read-out and setting: the value for `CC1(C)C(=O)N(c2ccc(C#N)c(C(F)(F)F)c2)C(=S)N1c1ccc(CNC(=O)c2cocn2)c(F)c1` [Compound 54] was 56%.
On the same count and under the same terms, then `Cc1ncsc1C(=O)NCc1ncc(N2C(=S)N(c3ccc(C#N)c(C(F)(F)F)c3)C(=O)C2(C)C)cc1F` [Compound 55], with 58%.
Regarding `CC1CC1C(=O)NCc1ccc(N2C(=S)N(c3ccc(C#N)c(C(F)(F)F)c3)C(=O)C2(C)C)cc1F` (stereo not drawn) [Compound 41], in assay [1], the inhibition at 1 µM was 88%.

In general, IC50 refers to the midpoint of a concentration-inhibition curve. As usually defined, the inhibition is the drop in the measured response relative to a control, in per cent.
